Read-outs that look alike come from different tables or passages of the source.

The text below walks through data of patent US20240156825A1, “USE OF SELECTIVE VEGFR2 AND FGFR1 INHIBITORS” (Fountain Therapeutics Inc., priority 2022, published 2024).

Experiment [1] relates to Zmpste24−/− mice. As to the kind of experiment: Mouse model of progeria: body fat (Echo MRI), lean muscle, body weight, intrascapular brown fat. The class given is in vivo. Conditions: oral gavage QD5 for 56 days; for Body fat (Echo MRI) vs vehicle / Intrascapular brown fat mass (percent of body weight) vs vehicle: Brivanib alaninate 50, SU5402 25, Cediranib maleate 5, Regorafenib 10, infigratinib 5 mg/kg; for Body weight vs vehicle / Lean muscle vs vehicle: SU5402 25, Cediranib maleate 5, Regorafenib 10, infigratinib 5 mg/kg. As for the experimental part: Zmpste24 mice, a progeria model mouse line, were dosed with either 50 mg/kg Brivanib alaninate for 56 days, 5 days on, 2 days off (QD5), or vehicle alone. The dose was administered via oral gavage as a suspension of 18% (w/v) PEG400 2% (w/v) Tween-80 in water . The vehicle alone was 18% (w/v) PEG400 2% (w/v) Tween-80 in water.
The body fat of the mice was measured by an Echo MRI throughout the treatment.
Samples of intrascapular brown adipose tissue from 15 week old mice treated with Brivanib Alaninate or vehicle for 56 days underwent Hematoxylin and Eosin (H&E) staining.
Zmpste24−/− mice, a progeria model mouse line, were dosed with either 25 mg/kg SU5402 for 56 days, 5 days on, 2 days off (QD5) or vehicle alone. The dose was administered via oral gavage as a suspension of 5% (w/v) DMSO 9% (w/v) PEG400 1% (w/v) Tween-80 in saline. The vehicle alone was 5% (w/v) DMSO 9% (w/v) PEG400 1% (w/v) Tween-80 in saline.
The body fat of the mice was measured by an Echo […]. Lean muscle and body weight were also measured.
The dose was administered via oral gavage as a suspension of 18% (w/v) PEG400 2% (w/v) Tween-80 in water . The vehicle alone was 18% (w/v) PEG400 2% (w/v) Tween-80 in water.
The body fat of the mice was measured by an Echo MRI. […] There was also no alteration of intrascapular brown adipose tissue mass (FIG. 5D).
The dose was administered via oral gavage as a suspension of 18% (w/v) PEG400 2% (w/v) Tween-80 in water. The vehicle alone was 18% (w/v) PEG400 2% (w/v) Tween-80 in water.
The body fat of the mice was measured by an Echo MM. […] There was also no alteration of intrascapular brown adipose tissue mass (FIG. 6D).
The body fat of the mice was measure by an Echo MRI. […] There was also no alteration of intrascapular brown adipose tissue mass (FIG. 7D). […]

The subject of experiment [2] is any gene target. The settings on record: cited from earlier work.
The target of experiment [3] is T1, VEGFR2 (Homo sapiens, UniProt P35968). The settings on record: relative IC50: reported IC50 toward VEGFR2 divided by next lowest reported IC50 to any gene target.
In experiment [4] the test system is VEGFR2 and FGFR1. As to the kind of experiment: Selection of compounds that selectively inhibit both VEGFR2 and FGFR1 (average relative IC50). The class given is biochemical.
The target of experiment [5] is T2, FGFR1 (Homo sapiens, UniProt P11362).
The target of experiment [6] is T2, FGFR1. Conditions: cited from earlier work.
Experiment [7] concerns the target T1, VEGFR2. The settings on record: cited from earlier work.
Setting [8] is: lowest reported IC50 to any gene target, read-out: Min IC50_μM.
[9] abbreviates: reported IC50 to FGFR1, read-out: FGFR1 IC50_μM.
Where [10] appears, read: Table 2, lowest reported IC50 to any gene target, read-out: Min IC50_μM.
[11] abbreviates: lowest reported IC50 to any gene target, read-out: min IC50.
[12] abbreviates: Table 2, list of selective inhibitors of FGFR1, read-out: FGFR1 IC50_μM: reported IC50 to FGFR1.
Where [13] appears, read: average of VEGFR2 and FGFR1 relative IC50.
Where [14] appears, read: relative IC50: reported IC50 toward FGFR1 divided by next lowest reported IC50 to any gene target.
Where [15] appears, read: next lowest IC50 value to any gene target, Table 3, read-out: Min IC50_μM.
[16] abbreviates: reported IC50 to VEGFR2, Table 3, selective inhibitors of VEGFR2, read-out: VEGFR2 IC50_μM.

T2 sequence (P11362 22-822, species assumed): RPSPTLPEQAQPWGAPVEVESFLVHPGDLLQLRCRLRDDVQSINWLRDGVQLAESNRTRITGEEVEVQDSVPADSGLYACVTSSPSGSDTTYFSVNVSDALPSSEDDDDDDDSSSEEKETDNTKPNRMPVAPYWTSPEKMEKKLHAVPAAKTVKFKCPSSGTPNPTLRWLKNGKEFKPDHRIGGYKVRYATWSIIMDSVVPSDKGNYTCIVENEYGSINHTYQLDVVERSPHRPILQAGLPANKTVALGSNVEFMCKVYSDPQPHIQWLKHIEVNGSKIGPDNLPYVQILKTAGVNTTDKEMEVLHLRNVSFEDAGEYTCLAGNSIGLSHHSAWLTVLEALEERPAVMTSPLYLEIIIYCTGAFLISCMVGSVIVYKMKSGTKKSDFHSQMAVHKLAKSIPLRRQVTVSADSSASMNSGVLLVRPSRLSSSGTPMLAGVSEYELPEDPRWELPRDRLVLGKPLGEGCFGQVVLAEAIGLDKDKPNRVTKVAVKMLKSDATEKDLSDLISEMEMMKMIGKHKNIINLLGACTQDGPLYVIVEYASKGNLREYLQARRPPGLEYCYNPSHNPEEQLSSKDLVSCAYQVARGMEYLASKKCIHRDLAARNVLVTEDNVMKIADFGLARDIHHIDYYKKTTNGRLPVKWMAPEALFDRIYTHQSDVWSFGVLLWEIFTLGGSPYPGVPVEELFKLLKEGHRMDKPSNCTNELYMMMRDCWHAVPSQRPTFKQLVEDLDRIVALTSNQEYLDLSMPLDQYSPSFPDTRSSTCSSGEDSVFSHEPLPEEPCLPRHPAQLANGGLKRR
T1 sequence (P35968 20-1356, species assumed): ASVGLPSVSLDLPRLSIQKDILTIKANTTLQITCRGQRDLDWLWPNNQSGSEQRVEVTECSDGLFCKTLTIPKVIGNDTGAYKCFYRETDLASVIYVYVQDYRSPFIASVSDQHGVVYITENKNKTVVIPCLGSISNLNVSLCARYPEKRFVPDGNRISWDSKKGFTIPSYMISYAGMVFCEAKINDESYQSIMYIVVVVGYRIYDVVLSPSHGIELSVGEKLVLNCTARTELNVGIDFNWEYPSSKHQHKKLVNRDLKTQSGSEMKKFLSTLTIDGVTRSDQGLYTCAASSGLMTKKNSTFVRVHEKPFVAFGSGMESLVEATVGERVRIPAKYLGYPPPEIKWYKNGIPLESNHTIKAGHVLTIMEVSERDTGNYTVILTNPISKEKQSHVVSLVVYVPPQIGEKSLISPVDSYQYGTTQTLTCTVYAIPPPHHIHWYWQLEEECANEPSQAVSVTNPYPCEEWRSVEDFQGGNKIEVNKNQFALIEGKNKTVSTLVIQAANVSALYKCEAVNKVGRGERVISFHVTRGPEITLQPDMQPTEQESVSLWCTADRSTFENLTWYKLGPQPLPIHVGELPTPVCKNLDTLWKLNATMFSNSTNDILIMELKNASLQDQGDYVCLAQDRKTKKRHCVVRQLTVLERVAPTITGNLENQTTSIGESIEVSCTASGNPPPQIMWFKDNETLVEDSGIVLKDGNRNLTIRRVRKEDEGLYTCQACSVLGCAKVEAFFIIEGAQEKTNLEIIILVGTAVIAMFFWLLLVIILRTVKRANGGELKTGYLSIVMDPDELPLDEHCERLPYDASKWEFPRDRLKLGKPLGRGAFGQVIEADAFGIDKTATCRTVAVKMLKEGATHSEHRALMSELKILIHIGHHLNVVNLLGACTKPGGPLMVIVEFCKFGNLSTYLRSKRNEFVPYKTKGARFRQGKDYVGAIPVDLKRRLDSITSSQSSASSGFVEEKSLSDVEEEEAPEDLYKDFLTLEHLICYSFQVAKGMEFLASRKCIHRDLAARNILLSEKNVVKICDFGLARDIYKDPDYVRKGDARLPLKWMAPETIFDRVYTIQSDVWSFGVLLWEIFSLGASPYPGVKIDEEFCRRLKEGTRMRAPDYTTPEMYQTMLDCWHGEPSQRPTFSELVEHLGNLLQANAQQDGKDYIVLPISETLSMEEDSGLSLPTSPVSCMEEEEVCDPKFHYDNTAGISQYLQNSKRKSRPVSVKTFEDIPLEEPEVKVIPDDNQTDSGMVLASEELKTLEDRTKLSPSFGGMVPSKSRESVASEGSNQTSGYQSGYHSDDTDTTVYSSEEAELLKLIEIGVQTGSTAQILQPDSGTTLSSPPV

In the case of `CCN1CCN(c2ccc(Nc3cc(N(C)C(=O)Nc4c(Cl)c(OC)cc(OC)c4Cl)ncn3)cc2)CC1` [Infigratinib], in experiment [1], the “Body fat (Echo MRI) vs vehicle” value is on record as “did not show an increase”, the “Intrascapular brown fat mass (percent of body weight) vs vehicle” value was “no alteration”, the “Body weight vs vehicle” value is recorded as “did not show an increase” and the “Lean muscle vs vehicle” value is listed as “did not show an increase”.
Regarding `Cc1c[nH]c(/C=C2\C(=O)Nc3ccccc32)c1CCC(=O)O` [compound 5289418, 3-[(3-(2-Carboxyethyl)-4-methylpyrrol-2-YL)methylene]-2-indolinone], in experiment [2] (read-out: Min IC50_μM), the IC50 was 30 nM. In addition, the IC50 in experiment [2] (read-out: min IC50) is 30 nM. Besides, in experiment [1], the “Body fat (Echo MRI) vs vehicle” value is on record as “increase in body mass starting at 9 weeks of age”, the “Intrascapular brown fat mass (percent of body weight) vs vehicle” value is listed as “made up for more of the body weight percent”, the “Body weight vs vehicle” value is “increase in body weight starting at 12 weeks of age” and the “Lean muscle vs vehicle” value is reported as “increase in lean muscle starting at 15 weeks of age”. In experiment [3], the “VEGFR2, rIC50” value is listed as 0.7. Also, in experiment [4], the “avg rIC50” value turned out to be 1.1. Further, the “FGFR1, rIC50” value in experiment [5] is on record as 1.5.
As to `CC(C)(C)NC(=O)Nc1nc2nc(N)ncc2cc1-c1c(Cl)cccc1Cl` [compound 5328112], the IC50 is 130 nM in experiment [2] (setting [8]) and 110 nM in experiment [6] (setting [9]).
Consider `CC(C)(C)NC(=O)Nc1nc2nc(N)ncc2cc1-c1ccccc1` [compound 5329111], for which the figures for the IC50 in experiment [2] (setting [8]) and in experiment [6] (setting [9]) were 3710 nM and 3700 nM, respectively.
Regarding `NS(=O)(=O)c1ccc2c(c1)/C(=C/c1[nH]c3c(c1CCC(=O)O)CCCC3)C(=O)N2` [compound 5329165, Indolin-2-one deriv. 9c, reference compound], the IC50 in experiment [2] (setting [10]) was 600 nM; in experiment [2] (setting [11]) it was 200 nM; in experiment [6] (setting [12]) it was 200 nM. In addition, the “VEGFR2, rIC50” value in experiment [3] is 3.0. The “avg rIC50” value in experiment [4] (setting [13]) worked out at 1.7. The “FGFR1, rIC50” value in experiment [5] (setting [14]) turned out to be 0.3.
In the case of `CONC(=O)c1cc(Nc2ncnn3cc(-c4nnc(C)o4)c(C(C)C)c23)c(F)cc1F` [compound 10478569, 2,4-Difluoro-5-[5-isopropyl-6-(5-methyl-[1,3,4]oxadiazol-2-yl)-pyrrolo[2,1-f][1,2,4]triazin-4-ylamino]-N-methoxy-benzamide, reference compound], the “VEGFR2, rIC50” value in experiment [3] was determined as 1.2. In experiment [6] (setting [9]), the IC50 is 6.5 nM. Moreover, the “avg rIC50” value in experiment [4] (setting [13]) is recorded as 1.1. Besides, in experiment [5] (setting [14]), the “FGFR1, rIC50” value is on record as 1.0.
`Cc1cc(C)c(C)c(-c2cc3cnc(NCCCN4CCN(C)CC4)nc3nc2NC(=O)NC(C)(C)C)c1C` [compound 10602350]: the IC50 in experiment [2] (setting [8]) and in experiment [6] (setting [9]) was 140 nM each time.
Consider `CCc1nnc(-c2cn3ncnc(Nc4cc(C(=O)NOC)c(F)cc4F)c3c2C(C)C)o1` [compound 11374515, 5-[6-(5-Ethyl-[1,3,4]oxadiazol-2-yl)-5-isopropyl-pyrrolo[2,1-f][1,2,4]triazin-4-ylamino]-2,4-difluoro-N-methoxy-benzamide, reference compound], for which the figures for the IC50 in experiment [2] (setting [11]), in experiment [2] (setting [15]) and in experiment [7] (setting [16]) were 2 nM, 1.8 nM and 1.8 nM, respectively. In experiment [3], the “VEGFR2, rIC50” value is 1.0. Further, the “avg rIC50” value in experiment [4] (setting [13]) is recorded as 1.8. Also, the “FGFR1, rIC50” value in experiment [5] (setting [14]) is 2.6.
On to `CONC(=O)c1cc(Nc2ncnn3cc(-c4nnc(CC(F)(F)F)o4)c(C(C)C)c23)c(F)cc1F` [compound 11455031, 2,4-Difluoro-5-{5-isopropyl-6-[5-(2,2,2-trifluoro-ethyl)-[1,3,4]oxadiazol-2-yl]-pyrrolo[2,1-f][1,2,4]triazin-4-ylamino}-N-methoxy-benzamide, reference compound], for which the IC50 in experiment [2] (setting [11]), in experiment [2] (setting [15]) and in experiment [7] (setting [16]) was 25 nM in each case. In experiment [3], the “VEGFR2, rIC50” value turned out to be 1.0. Further, in experiment [4] (setting [13]), the “avg rIC50” value turned out to be 1.4. Further, the “FGFR1, rIC50” value in experiment [5] (setting [14]) is listed as 1.8.
For `CONC(=O)c1cc(Nc2ncnn3cc(-c4nnco4)c(C(C)C)c23)c(F)cc1F` [compound 11464544, 2,4-Difluoro-5-(5-isopropyl-6-[1,3,4]oxadiazol-2-yl-pyrrolo[2,1-f][1,2,4]triazin-4-ylamino)-N-methoxy-benzamide, reference compound], the IC50 in experiment [2] (setting [8]), in experiment [2] (setting [11]) and in experiment [6] (setting [9]) was 54 nM in each case. Besides, the “VEGFR2, rIC50” value in experiment [3] came out at 1.4. In experiment [4] (setting [13]), the “avg rIC50” value is 1.2. Besides, the “FGFR1, rIC50” value in experiment [5] (setting [14]) is 1.0.
As to `COC(=O)C1=C(c2ccccc2)c2cc(C)ccc2C1=O.COC(=O)C1=C(c2ccccc2)c2ccc(C)cc2C1=O` [compound 44330102], the IC50 in experiment [2] (setting [8]) and in experiment [6] (setting [9]) was 6400 nM throughout.
In the case of `COC(=O)C1=C(c2ccccc2)c2ccncc2C1=O` [compound 44330158], the IC50 in experiment [2] (setting [8]) and in experiment [6] (setting [9]) was 6800 nM in each case.
For `NC(=O)C1=C(c2ccc(Cl)cc2)c2ccccc2C1=O` [compound 44330203], the IC50 in experiment [2] (setting [8]) and in experiment [6] (setting [9]) was 5400 nM in each case.
In the case of `C=CC(=O)Nc1ccc(CN(C(=O)Nc2c(Cl)c(OC)cc(OC)c2Cl)c2cc(Nc3ccc(N4CCN(C)CC4)cc3)ncn2)cc1` [compound 73707531], the IC50 in experiment [2] (setting [8]) and in experiment [6] (setting [9]) was 1 nM in each case.
In the case of `COc1cc(CCc2cc(Nc3ncnc4cc(N5CCN6CCCCC6C5)ccc34)n[nH]2)cc(OC)c1` (centres unmarked) [compound 127047969], the IC50 in experiment [2] (setting [8]) and in experiment [6] (setting [9]) was 0.2 nM in each case.
For the compound `Cc1oc2c(c1C(=O)N1CC[C@H](N)C1)C(=O)c1c(c(O)c3ccccc3c1O)C2=O` [compound 137631210], the IC50 in experiment [2] (setting [8]) and in experiment [6] (setting [9]) was 5000 nM throughout.
In the case of `C=CC(=O)N1CC[C@H](n2cc(-c3cc4cc(C)cc(OC)c4s3)c3c(N)ncnc32)C1` [compound 138617501], the IC50 is 0.8 nM in experiment [2] (setting [10]) and 0.3 nM in experiment [6] (setting [12]).
Take `O=c1[nH]c(=O)n(-c2ccc(Oc3ccccc3)cc2)c(=O)n1-c1ccccc1` [compound 139434105]: the IC50 was 1300 nM in experiment [2] (setting [10]) and 890 nM in experiment [6] (setting [12]).
With `COC(=O)c1ccc2c(C(=Nc3ccc(-n4c(C)ccc4CN4CCN(C)CC4)cc3)c3ccccc3)c(O)[nH]c2c1` [compound 141475848, Methyl 2-hydroxy-3-[N-[4-[2-methyl-5-[(4-methylpiperazin-1-yl)methyl]pyrrol-1-yl]phenyl]-C-phenylcarbonimidoyl]-1H-indole-6-carboxylate, reference compound], the IC50 was 7 nM in experiment [2] (setting [11]); 9.9 nM in experiment [2] (next lowest IC50 value to any gene target, read-out: Min IC50_μM); 6.5 nM in experiment [7] (reported IC50 to VEGFR2, read-out: VEGFR2 IC50_μM). For the same compound, the “VEGFR2, rIC50” value in experiment [3] is recorded as 0.7. Further, the “avg rIC50” value in experiment [4] (setting [13]) stood at 2.1. In addition, the “FGFR1, rIC50” value in experiment [5] (setting [14]) amounted to 3.5.
In the case of Cediranib maleate, in experiment [1], the “Body fat (Echo MRI) vs vehicle” value was “did not show an increase”, the “Intrascapular brown fat mass (percent of body weight) vs vehicle” value is recorded as “no alteration”, the “Body weight vs vehicle” value was “did not show an increase” and the “Lean muscle vs vehicle” value was “did not show an increase”. For the same compound, the IC50 in experiment [7] (read-out: IC50 VEGFR2) was 1 nM.
